Assay results: US4610987A, “Imidazoquinazolin-2-one compounds” (Daiichi Seiyaku Co., Ltd., priority 1983, dated 1986)
In brackets after ≈: the same amount, converted by molar mass. Like-named read-outs stand apart in the source and are kept apart here.

How the values were obtained:
[1] = tested on: platelet aggregation (rat platelet-rich-plasma); experiment: Test of Platelet Aggregation Inhibition (in vitro), rat PRP; assay type: cell-based, Wistar Imamichi rat; conditions: for IC50: Platelet, in vitro, rat blood
Procedure: (§1) The test was performed as follows in accordance with the method of Ashida et al, Thrombosis and Haemostasis, Vol. 40, 542 (1979).
(§2) Blood was taken by puncture from the heart of a Wistar Imamichi rat under anesthesia with pentobarbital into a syringe containing 1/10 volume of a 3.13% aqueous solution of sodium citrate dihydrate, and the citrated blood was centrifuged to obtain a platelet-rich-plasma (PRP). In the same manner, citrated blood was collected from the vein of a healthy human who had not taken aspirin or any other anti-inflammatory agent since before 10 days, followed by centrifugation to obtain PRP. 5 μl of each test compound was added to 0.445 ml of each of these PRP samples, and the system was warmed at 30° C. for 1 minute. 50 μl of an aggregation inducer (ADP or collagen) was then added thereto, and platelet aggregation was determined according to the method of Born, Nature, Vol. 194, 927 (1962).

[2] = tested on: platelet aggregation (human platelet-rich-plasma); experiment: Test of Platelet Aggregation Inhibition (in vitro), human PRP; assay type: cell-based; conditions: human blood, ADP-induced
Procedure: as §1, §2

[3] = tested on: platelet aggregation; experiment: Test of Platelet Aggregation Inhibition (ex vivo, p.o.); assay type: in vivo, Wistar Imamichi rat; conditions: for inhibition at 10 mg/kg: Platelet, po, ex vivo, rat, 10 mg/Kg p.o., 1 hour, *P<0.05, **P<0.01, ***P<0.001
Procedure: One hour later, citrated blood was taken from the heart, and platelet aggregation was determined in the same manner as described in the in vitro test. The inhibitory activity was compared with that of control and expressed in terms of percent inhibition.

[4] = tested on: circulatory system; experiment: Test of Influence on Circulatory System (blood pressure, heart beats); assay type: in vivo, SLC-Wistar rat; conditions: rat, 50 mg/Kg p.o.
Procedure: 5 or 6 male normal SLC-Wistar rats per group (body weight: 205-255 g) orally received 50 mg/Kg of the test compound, and the blood pressure (tail cuff method) and the heart beats were measured with the passage of time in order to elucidate influences of the test compound on the circulatory system.

[5] = molecular target: human platelet PDE I (Homo sapiens, UniProt O76074); experiment: Inhibitory activity on phosphodiesterase, platelet PDE I (cGMP); assay type: biochemical; conditions: cGMP substrate
Procedure: (§3) Phosphodiesterase fractions were separated from 105,000×g of supernatant fractions from human platelets and heart by DEAE-cellulose column chromatography using the method of Timothy et al. (Arch. Biochem. Biophy. 196, 465-474, 1979) with minor modifications. These fractions were designated PDE I, PDE II and PDE III, depending upon the order of their emergence from the DEAE-cellulose column.
(§4) Phosphodiesterase activity was measured by the method of Thompson and Appleman (Biochemistry 10, 311-316, 1971) with slight modifications. The reaction mixture consisted of 25 mM of Tris-HCl (pH 7.4), 5 mM of MgCl2, 1 μM of [^3 H]-cAMP or cGMP (approximate 20,000 cpm), various concentrations of a test compound and the enzyme preparation. After incubation for 10 minutes at 30° C., the reaction was terminated by boiling the reaction mixture for 45 seconds. 5'-[^3 H]-AMP or GMP formed by phosphodiesterase was converted to [^3 H]adenosine or [^3 H]quanosine by snake venom (Botherop Atrox) containing 5'-nucleotidase and the product isolated by a cation exchange resin was counted in a liquid scintillation counter.

[6] = tested on: human platelet PDE II; experiment: Inhibitory activity on phosphodiesterase, platelet PDE II (cGMP); assay type: biochemical; conditions: cGMP substrate
Procedure: as §3, §4

[7] = molecular target: human heart PDE I; experiment: Inhibitory activity on phosphodiesterase, heart PDE I (cGMP); assay type: biochemical; conditions: cGMP substrate
Procedure: as §3, §4

[8] = molecular target: human heart PDE III; experiment: Inhibitory activity on phosphodiesterase, heart PDE III (cAMP); assay type: biochemical; conditions: for IC50: cAMP substrate
Procedure: as §3, §4

[9] = Solubility Test (water-solubility)
[10] = tested on: platelet aggregation; experiment: Test of Platelet Aggregation Inhibition (ex vivo; i.v.); assay type: in vivo, Wistar Imamichi rat; conditions: iv, 0.25 h, rat, i.v. 67 μg/Kg/min, 15 min
Procedure: As test animals, 5 to 6 Wistar Imamichi rats (body weight: about 260 g) that had been allowed food and water ad libitum were used per group. The test compound was dissolved in a physiological saline solution and continuously injected over a period of 10 or 15 minutes to the rats under anesthesia with pentobarbital through the femoral vein. Immediately after completion of the administration, citrated blood was collected from the heart, and platelet aggregation was determined in the same manner as in the test in vitro in Test Example 2.

[11] = molecular target: human platelet PDE III (Homo sapiens, UniProt Q14432); experiment: biochemical; conditions: for IC50: cAMP substrate
Chain of human platelet PDE III (Q14432 whole entry): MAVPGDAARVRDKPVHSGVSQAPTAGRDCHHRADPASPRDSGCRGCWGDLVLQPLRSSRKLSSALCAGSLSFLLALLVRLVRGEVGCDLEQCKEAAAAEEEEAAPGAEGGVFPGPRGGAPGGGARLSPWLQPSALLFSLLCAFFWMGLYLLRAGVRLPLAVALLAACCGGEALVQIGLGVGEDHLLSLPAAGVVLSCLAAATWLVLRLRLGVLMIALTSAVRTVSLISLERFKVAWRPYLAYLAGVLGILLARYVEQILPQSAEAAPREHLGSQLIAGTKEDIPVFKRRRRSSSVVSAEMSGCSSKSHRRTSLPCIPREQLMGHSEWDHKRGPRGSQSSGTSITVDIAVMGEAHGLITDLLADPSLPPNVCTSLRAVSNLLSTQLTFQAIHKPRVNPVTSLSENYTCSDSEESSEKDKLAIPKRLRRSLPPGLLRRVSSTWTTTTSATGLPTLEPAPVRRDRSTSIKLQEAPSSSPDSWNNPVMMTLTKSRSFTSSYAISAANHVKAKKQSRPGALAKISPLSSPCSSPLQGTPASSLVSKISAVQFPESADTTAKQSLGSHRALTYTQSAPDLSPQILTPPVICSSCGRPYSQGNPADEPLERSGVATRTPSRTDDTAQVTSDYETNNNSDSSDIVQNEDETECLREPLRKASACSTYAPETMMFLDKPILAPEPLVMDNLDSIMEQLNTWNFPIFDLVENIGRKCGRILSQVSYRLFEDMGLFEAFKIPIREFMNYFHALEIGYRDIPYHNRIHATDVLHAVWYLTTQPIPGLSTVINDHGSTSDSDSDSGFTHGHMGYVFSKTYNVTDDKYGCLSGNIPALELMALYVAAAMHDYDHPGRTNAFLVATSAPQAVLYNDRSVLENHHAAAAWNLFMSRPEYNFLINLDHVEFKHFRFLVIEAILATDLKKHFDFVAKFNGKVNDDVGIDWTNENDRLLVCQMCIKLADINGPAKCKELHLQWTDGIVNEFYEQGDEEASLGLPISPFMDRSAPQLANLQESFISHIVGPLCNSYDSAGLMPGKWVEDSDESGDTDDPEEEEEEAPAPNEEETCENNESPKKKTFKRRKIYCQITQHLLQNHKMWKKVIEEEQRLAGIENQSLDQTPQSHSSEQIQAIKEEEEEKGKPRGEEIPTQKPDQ
Procedure: as §3, §4

[12] = tested on: platelet aggregation induced by B16 melanoma cells; experiment: Inhibition on Platelet Aggregation Induced by Cancer Cells (in vitro), B16; assay type: cell-based, C57BL/6 mouse; design: key: +: Aggregation was observed.; ±: Aggregation was partially inhibited.; -: No aggregation was observed
Procedure: (§5) It is known nowadays that platelet aggregation plays an important role in metastasis of cancers. […] Tanaka et al. The effect of the compounds of this invention to inhibit the above-described cancer cell-induced platelet aggregation was tested as follows. Cell suspensions of B16 or 3LL were prepared according to the method of Tanaka et al, Invarsion and Metastasis, Vol. 2, 289 (1982). […] Platelet aggregation of the sample system was determined according to the method of Born, and the platelet aggregation inhibitory activity was expressed by the following scale: […]

[13] = tested on: platelet aggregation induced by Lewis lung cancer (3LL) cells; experiment: Inhibition on Platelet Aggregation Induced by Cancer Cells (in vitro), 3LL; assay type: cell-based, C57BL/6 mouse; design: key: +: Aggregation was observed.; ±: Aggregation was partially inhibited.; -: No aggregation was observed
Procedure: as §5

[14] = ADP-induced, read-out: IC50, platelet aggregation inhibition in vitro, ADP
[15] = collagen-induced, read-out: IC50, platelet aggregation inhibition in vitro, Collagen
[16] = ADP, read-out: ex vivo % inhibition of platelet aggregation, ADP
[17] = collagen, read-out: ex vivo % inhibition of platelet aggregation, Collagen

O=C1CN2Cc3c(ccc(Cl)c3Cl)N=C2N1 [BL-4162, 6,7-dichloro-1,2,3,5-tetrahydro[2,1-b]quinazolin-2-one]
IC50 [1, 14]: 800 nM | IC50 [1, 15]: 20 nM | IC50 [2]: 1200 nM | inhibition at 10 mg/kg [3, 16]: 8% | inhibition at 10 mg/kg [3, 17]: 53% | aggregation inhibitory activity in ADP- or collagen-induced aggregation (in words) ([3]; orally administered, Table 2): widely varied depending on the individual animal and, therefore, cannot be regarded significant | Increase in Heart Beat ([4]; 1 hr, **P<0.01): 28% | Reduction in Blood Pressure ([4]; 1 hr, *P<0.05, **P<0.01): 11% | Increase in Heart Beat ([4]; 2 hr, **P<0.01): 37% | Reduction in Blood Pressure ([4]; 2 hr, *P<0.05, **P<0.01): 16% | Increase in Heart Beat ([4]; 3 hr, **P<0.01): 31% | Reduction in Blood Pressure ([4]; 3 hr, **P<0.01): 17% | Increase in Heart Beat ([4]; 4 hr, **P<0.01): 37% | Reduction in Blood Pressure ([4]; 4 hr, **P<0.01): 14% | Increase in Heart Beat ([4]; 5 hr, **P<0.01): 31% | Reduction in Blood Pressure ([4]; 5 hr, **P<0.01): 14% | Increase in Heart Beat ([4]; 6 hr, *P<0.05, **P<0.01): 31% | Reduction in Blood Pressure ([4]; 6 hr, *P<0.05, **P<0.01): 13% | IC50 [5]: 3900 nM | IC50 [6]: 3300 nM | IC50 [7]: > 10000 nM | IC50 [8]: 96 nM | solubility ([9]; tap water, pH 2): < 10 µg/mL | solubility ([9]; water, pH 4, water): < 10 µg/mL

CN(C)c1ccc2c(c1)CN1CC(=O)NC1=N2 [Example 21, 7-dimethylamino-1,2,3,5-tetrahydroimidazo[2,1-b]quinazolin-2-one]
platelet aggregation inhibitory activity (in words) [1]: strong platelet aggregation inhibitory activity | IC50 [1, 14]: 5400 nM | IC50 [1, 15]: 1400 nM | IC50 [2]: 7200 nM | inhibition at 10 mg/kg [3, 16]: 29% | inhibition at 10 mg/kg [3, 17]: 48% | inhibition at 0.067 mg/kg ([10]; ADP, *P<0.05, read-out: Percent Inhibition of platelet aggregation, ADP): 23% | inhibition at 0.067 mg/kg ([10]; collagen, *P<0.05, read-out: Percent Inhibition of platelet aggregation, Collagen): 71% | Increase in Heart Beat ([4]; 1 hr, **P<0.01): 19% | Reduction in Blood Pressure ([4]; 1 hr, *P<0.05, **P<0.01): 1.0% | Increase in Heart Beat ([4]; 2 hr, **P<0.01): 22% | Reduction in Blood Pressure ([4]; 2 hr, *P<0.05, **P<0.01): 5.0% | Increase in Heart Beat ([4]; 3 hr, **P<0.01): 20% | Reduction in Blood Pressure ([4]; 3 hr, **P<0.01): 5.0% | Increase in Heart Beat ([4]; 5 hr, **P<0.01): 23% | Reduction in Blood Pressure ([4]; 5 hr, **P<0.01): 5.0% | Increase in Heart Beat ([4]; 6 hr, *P<0.05, **P<0.01): 15% | Reduction in Blood Pressure ([4]; 6 hr, *P<0.05, **P<0.01): 1.0% | IC50 [5]: 70000 nM | IC50 [6]: 57000 nM | IC50 Ratio (PDE II) Heart/Platelet ([11]; Heart/Platelet): 1.1 | IC50 [11]: 1300 nM | IC50 [7]: > 100000 nM | activity on heart PDE (in words) ([8]; Table 6): strong activity on heart PDE | IC50 [8]: 1400 nM | water-solubility (in words) [9]: water-soluble | solubility ([9]; tap water, pH 2): > 100000 µg/mL | solubility ([9]; water, pH 4, water): 180 µg/mL (≈ 782 µM)

Cl.Cl.O.O=C1CN2Cc3cc(N4CCCCC4)c(Cl)cc3N=C2N1 [Example 16, 8-Chloro-7-piperidino-1,2,3,5-tetrahydroimidazo[2,1-b] quinazolin-2-one dihydrochloride monohydrate]
IC50 [1, 14]: 400 nM | IC50 [1, 15]: 460 nM | IC50 [2]: 12500 nM | inhibition at 10 mg/kg [3, 16]: 34% | inhibition at 10 mg/kg [3, 17]: 76% | Inhibition on platelet aggregation induced by B16 ([12]; sample concn. 0.3 μM): ± | Inhibition on platelet aggregation induced by B16 ([12]; sample concn. 1 μM): - | Inhibition on platelet aggregation induced by 3LL ([13]; sample concn. 1 μM): + | Inhibition on platelet aggregation induced by 3LL ([13]; sample concn. 3 μM): - | Inhibition on platelet aggregation induced by 3LL ([13]; sample concn. 10 μM): - | IC50 [5]: 30000 nM | IC50 [6]: > 30000 nM | IC50 Ratio (PDE II) Heart/Platelet [11]: 11.6 | selectivity to platelet PDE (in words) ([11]; Table 6): high selectivity to platelet PDE | IC50 [11]: 8.2 nM | IC50 [7]: > 10000 nM | IC50 [8]: 95 nM | water-solubility (in words) [9]: low water-solubility
